# Experimental data from patent publication US20130165368A1, “ANTIMICROBIAL COMPOUNDS” (priority 2010, published 2013).
# Test system: MRSA EMRSA 15 21698/98
# Assay: MIC agar dilution, MRSA strain 41
# Format: cell-based
# Settings: Staphylococcus aureus, 22 hrs
# Protocol: (§1) Molar equivalent concentrations were used to allow comparison between compounds of differing molecular mass. Due to weighing difficulties, any compound in solid form was melted in a water bath prior to dilution. To make ten-times strength concentrations, which takes into account agar dilution, 0.0352 mmol of each compound was weighed into plastic universal bottles and 4 mL of sterile distilled water (SDW) was added. To produce a homogenous emulsion the universals were vortexed; once achieved the emulsions were serial diluted by adding 2 mL to 2 mL of SDW.
# (§2) For every 100 mL of Isosensitest agar (IST) (CM0471; Oxoid, Basingstoke, England), 3.1 g of the IST powder was added to 100 mL SDW (as per manufacturer's instructions) and sterilised for 15 minutes at 121° C. Once sterilised, the molten agar was cooled to 50° C. in a water-bath. Subsequently 4.8 g of CCEY powder (BC2160; Bioconnections, Wetherby, England), also known as Brazier's medium, was added to 100 mL SDW for every 100 mL of agar needed. This was then sterilised for 15 minutes at 121° C. Once sterilised the molten agar was cooled to 50° C. in a water-bath and 4 mL of egg-yolk emulsion (S2073; TCS Biosciences Ltd, Buckingham, United Kingdom) and 1 mL of lysed defibrinated horse blood (HB035; TCS Biosciences Ltd, Buckingham, United Kingdom) were also added for every 100 mL needed. Horse blood lysis is achieved by dilution to half concentration with SDW; when fully lysed the mixture will turn dark red in colour.
# (§3) 18 mL agar was added to each universal and then poured into sterile Petri dishes. This step creates a 1/10 dilution resulting in agar plates of the required strength. Control plates for each set of strains were created by adding 18 mL of agar to 2 mL of SDW.
# (§4) Suspensions of each bacterial species were prepared with a density equal to that of a 0.5 McFarland standard using a densitometer. All suspensions were made using sterile distilled water and fresh 18-20 hour cultures. As a 0.5 McFarland standard contains 1.5×10^8 CFU/mL and the multipoint inoculators applies 1 μL spots of liquid, each bacterial suspension was diluted 1/15 (20 μL suspension to 280 μL sterile distilled water).
# (§5) Bacterial suspensions were prepared from fresh 18-24 hour cultures as previously described. 1 μL of each strain was inoculated onto all 100 agar plates containing a different chemical concentration and the 2 control plates. This was done using a multipoint inoculator which inoculates 20 strains per plate. All plates were incubated for 22 hours at 37° C. in aerobic conditions.
# (§6) Each plate was examined for bacterial growth after 22 and 48 hours, with each being incubated in between examinations. A positive result was recorded as growth of ≧10 colonies. A negative result was recorded as growth of <10 colonies as this is equivalent to 99.9% inhibition. The lowest concentration of chemical that inhibited growth was recorded as the MIC. The results are recorded in Table IV below, where the numbers are quoted in mmol/L.
# (§7) Given the positive performance of the ethoxylates of lauryl alcohol in reducing the MIC for a number of the micro-organisms tested, further MIC testing of Laureth-1 [C12E1] through to Laureth-8 [C12E8] was conducted on each of the following: • 10 strains of vancomycin-resistant enterococci (VRE)—listed in Table V below; and • 20 strains of methicillin-resistant Staphylococcus aureus (MRSA)—listed in Table VI.
# (§8) The alkanol, alkanol derivatives, agar plates, and inocula were all prepared in the same way as described above.
# (§9) The plates were examined in the same manner as described above and the results are recorded in Table VII below, where the numbers are quoted in mmol/L.
row,SMILES,MIC [µM]
1,"CCCCCCCCCCCCOCCO [L1, Ethylene Glycol Monododecyl Ether]",220

# Same assay, conditions: Staphylococcus aureus, 48 hrs
row,SMILES,MIC [µM]
1,"CCCCCCCCCCCCOCCO [L1, Ethylene Glycol Monododecyl Ether]",220

# Test system: MRSA BEL 97597
# Assay: MIC agar dilution, MRSA strain 33
# Format: cell-based
# Settings: Staphylococcus aureus, 22 hrs
# Protocol: as §1, §2, §3, §4, §5, §6, §7, §8, §9
row,SMILES,MIC [µM]
1,"CCCCCCCCCCCCOCCO [L1, Ethylene Glycol Monododecyl Ether]",220

# Same assay, conditions: Staphylococcus aureus, 48 hrs
row,SMILES,MIC [µM]
1,"CCCCCCCCCCCCOCCO [L1, Ethylene Glycol Monododecyl Ether]",220

# Test system: Enterococcus faecium (VRE) 12185 Clin waste
# Assay: MIC agar dilution, VRE strain 24
# Format: cell-based
# Settings: 22 hrs
# Protocol: as §1, §2, §3, §4, §5, §6, §7, §8, §9
row,SMILES,MIC [µM]
1,"CCCCCCCCCCCCOCCO [L1, Ethylene Glycol Monododecyl Ether]",880

# Same assay, conditions: 48 hrs
row,SMILES,MIC [µM]
1,"CCCCCCCCCCCCOCCO [L1, Ethylene Glycol Monododecyl Ether]",880

# Test system: MRSA GER 131/98 (Sger Iidc)
# Assay: MIC agar dilution, MRSA strain 35
# Format: cell-based
# Settings: Staphylococcus aureus, 22 hrs
# Protocol: as §1, §2, §3, §4, §5, §6, §7, §8, §9
row,SMILES,MIC [µM]
1,"CCCCCCCCCCCCOCCO [L1, Ethylene Glycol Monododecyl Ether]",220

# Same assay, conditions: Staphylococcus aureus, 48 hrs
row,SMILES,MIC [µM]
1,"CCCCCCCCCCCCOCCO [L1, Ethylene Glycol Monododecyl Ether]",220

# Test system: MRSA EMRSA 15 1729/98
# Assay: MIC agar dilution, MRSA strain 42
# Format: cell-based
# Settings: Staphylococcus aureus, 22 hrs
# Protocol: as §1, §2, §3, §4, §5, §6, §7, §8, §9
row,SMILES,MIC [µM]
1,"CCCCCCCCCCCCOCCO [L1, Ethylene Glycol Monododecyl Ether]",220

# Same assay, conditions: Staphylococcus aureus, 48 hrs
row,SMILES,MIC [µM]
1,"CCCCCCCCCCCCOCCO [L1, Ethylene Glycol Monododecyl Ether]",220

# Test system: MRSA EMRSA 16 07924/95
# Assay: MIC agar dilution, MRSA strain 49
# Format: cell-based
# Settings: Staphylococcus aureus, 22 hrs
# Protocol: as §1, §2, §3, §4, §5, §6, §7, §8, §9
row,SMILES,MIC [µM]
1,"CCCCCCCCCCCCOCCO [L1, Ethylene Glycol Monododecyl Ether]",220

# Same assay, conditions: Staphylococcus aureus, 48 hrs
row,SMILES,MIC [µM]
1,"CCCCCCCCCCCCOCCO [L1, Ethylene Glycol Monododecyl Ether]",220

# Test system: Staphylococcus aureus (MRSA)
# Assay: MIC agar dilution, micro-organism 12 (11939)
# Format: cell-based
# Settings: Staphylococcus aureus (MRSA) 11939; 22 hrs
# Summary of the method: (§10)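 Agar dilution in Isosensitest/CCEY agar with egg yolk and lysed horse blood; compounds as aqueous emulsions (myristyl and lauryl alcohol with 1-methyl-2-pyrrolidone and Tween 20). 1 µL spots of 1/15-diluted 0.5 McFarland suspensions, 37 °C aerobic, read at 22 and 48 h; MIC (mmol/L) is lowest concentration giving <10 colonies.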
row,SMILES,MIC [µM]
1,"CCCCCCCCCCCCCOCCOCCOCCOCCOCCOCCO [C13E6, polyoxyethylene (6) tridecyl alcohol]",110

# Same assay, conditions: Staphylococcus aureus (MRSA) 11939; 48 hrs
row,SMILES,MIC [µM]
1,"CCCCCCCCCCCCCOCCOCCOCCOCCOCCOCCO [C13E6, polyoxyethylene (6) tridecyl alcohol]",110

# Same assay, conditions: Staphylococcus aureus, MRSA, 22 h, Staphylococcus aureus (MRSA) 11939; 22 hrs; read-out: MIC
row,SMILES,MIC [µM]
1,"CCCCCCCCCCCCCCCCO [C0, 1-Hexadecanol, reference compound]",> 880
2,"CCCCCCCCCCCCOCCO [L1, Ethylene Glycol Monododecyl Ether]",440

# Same assay, conditions: Staphylococcus aureus, MRSA, 48 h, Staphylococcus aureus (MRSA) 11939; 48 hrs; read-out: MIC
row,SMILES,MIC [µM]
1,"CCCCCCCCCCCCCCCCO [C0, 1-Hexadecanol, reference compound]",> 880
2,"CCCCCCCCCCCCOCCO [L1, Ethylene Glycol Monododecyl Ether]",440

# Test system: Enterococcus faecium (VRE) 255693 N. Tyneside
# Assay: MIC agar dilution, VRE strain 22
# Format: cell-based
# Settings: 22 hrs
# Protocol: as §1, §2, §3, §4, §5, §6, §7, §8, §9
row,SMILES,MIC [µM]
1,"CCCCCCCCCCCCOCCO [L1, Ethylene Glycol Monododecyl Ether]",440

# Same assay, conditions: 48 hrs
row,SMILES,MIC [µM]
1,"CCCCCCCCCCCCOCCO [L1, Ethylene Glycol Monododecyl Ether]",440

# Test system: MRSA EMRSA 15 21268/98
# Assay: MIC agar dilution, MRSA strain 40
# Format: cell-based
# Settings: Staphylococcus aureus, 22 hrs
# Protocol: as §1, §2, §3, §4, §5, §6, §7, §8, §9
row,SMILES,MIC [µM]
1,"CCCCCCCCCCCCOCCO [L1, Ethylene Glycol Monododecyl Ether]",220

# Same assay, conditions: Staphylococcus aureus, 48 hrs
row,SMILES,MIC [µM]
1,"CCCCCCCCCCCCOCCO [L1, Ethylene Glycol Monododecyl Ether]",220

# Test system: Enterococcus faecalis (VRE) MB 1969
# Assay: MIC agar dilution, VRE strain 27
# Format: cell-based
# Settings: 22 hrs
# Protocol: as §1, §2, §3, §4, §5, §6, §7, §8, §9
row,SMILES,MIC [µM]
1,"CCCCCCCCCCCCOCCO [L1, Ethylene Glycol Monododecyl Ether]",220

# Same assay, conditions: 48 hrs
row,SMILES,MIC [µM]
1,"CCCCCCCCCCCCOCCO [L1, Ethylene Glycol Monododecyl Ether]",220

# Test system: MRSA BEL 97598
# Assay: MIC agar dilution, MRSA strain 34
# Format: cell-based
# Settings: Staphylococcus aureus, 22 hrs
# Protocol: as §1, §2, §3, §4, §5, §6, §7, §8, §9
row,SMILES,MIC [µM]
1,"CCCCCCCCCCCCOCCO [L1, Ethylene Glycol Monododecyl Ether]",220

# Same assay, conditions: Staphylococcus aureus, 48 hrs
row,SMILES,MIC [µM]
1,"CCCCCCCCCCCCOCCO [L1, Ethylene Glycol Monododecyl Ether]",220

# Test system: Staphylococcus aureus
# Assay: MIC agar dilution, micro-organism 13 (6571)
# Format: cell-based
# Settings: Staphylococcus aureus 6571; 22 hrs
# Summary of the method: as §10
row,SMILES,MIC [µM]
1,"CCCCCCCCCCCCCOCCOCCOCCOCCOCCOCCO [C13E6, polyoxyethylene (6) tridecyl alcohol]",110

# Same assay, conditions: Staphylococcus aureus 6571; 48 hrs
row,SMILES,MIC [µM]
1,"CCCCCCCCCCCCCOCCOCCOCCOCCOCCOCCO [C13E6, polyoxyethylene (6) tridecyl alcohol]",110

# Same assay, conditions: Staphylococcus aureus, 22 h, Staphylococcus aureus 6571; 22 hrs; read-out: MIC
row,SMILES,MIC [µM]
1,"CCCCCCCCCCCCCCCCO [C0, 1-Hexadecanol, reference compound]",> 880
2,"CCCCCCCCCCCCOCCO [L1, Ethylene Glycol Monododecyl Ether]",220

# Same assay, conditions: Staphylococcus aureus, 48 h, Staphylococcus aureus 6571; 48 hrs; read-out: MIC
row,SMILES,MIC [µM]
1,"CCCCCCCCCCCCCCCCO [C0, 1-Hexadecanol, reference compound]",> 880
2,"CCCCCCCCCCCCOCCO [L1, Ethylene Glycol Monododecyl Ether]",220

# Test system: MRSA EMRSA 16 00036/95
# Assay: MIC agar dilution, MRSA strain 46
# Format: cell-based
# Settings: Staphylococcus aureus, 22 hrs
# Protocol: as §1, §2, §3, §4, §5, §6, §7, §8, §9
row,SMILES,MIC [µM]
1,"CCCCCCCCCCCCOCCO [L1, Ethylene Glycol Monododecyl Ether]",220

# Same assay, conditions: Staphylococcus aureus, 48 hrs
row,SMILES,MIC [µM]
1,"CCCCCCCCCCCCOCCO [L1, Ethylene Glycol Monododecyl Ether]",220
